This is an account of results in patent US7951829B2, “Benzimidazole modulators of VR1” (Janssen Pharmaceutica NV, priority 2006, dated 2011).

In the assay the target is T1, hVR1 (Homo sapiens, UniProt Q8NER1).
T1 construct: expressed in transfected cells; host or cells: HEK293
Description: Human VR1 (hVR1) Functional Assay (FLIPR intracellular calcium, capsaicin challenge). Particulars: capsaicin 0.030 μM, HEK293 cells expressing hVR1; for inhibition at 1 µM: test concentration 1 μM. The class given is cell-based.

Structures are written as SMILES.

T1 sequence (Q8NER1 whole entry): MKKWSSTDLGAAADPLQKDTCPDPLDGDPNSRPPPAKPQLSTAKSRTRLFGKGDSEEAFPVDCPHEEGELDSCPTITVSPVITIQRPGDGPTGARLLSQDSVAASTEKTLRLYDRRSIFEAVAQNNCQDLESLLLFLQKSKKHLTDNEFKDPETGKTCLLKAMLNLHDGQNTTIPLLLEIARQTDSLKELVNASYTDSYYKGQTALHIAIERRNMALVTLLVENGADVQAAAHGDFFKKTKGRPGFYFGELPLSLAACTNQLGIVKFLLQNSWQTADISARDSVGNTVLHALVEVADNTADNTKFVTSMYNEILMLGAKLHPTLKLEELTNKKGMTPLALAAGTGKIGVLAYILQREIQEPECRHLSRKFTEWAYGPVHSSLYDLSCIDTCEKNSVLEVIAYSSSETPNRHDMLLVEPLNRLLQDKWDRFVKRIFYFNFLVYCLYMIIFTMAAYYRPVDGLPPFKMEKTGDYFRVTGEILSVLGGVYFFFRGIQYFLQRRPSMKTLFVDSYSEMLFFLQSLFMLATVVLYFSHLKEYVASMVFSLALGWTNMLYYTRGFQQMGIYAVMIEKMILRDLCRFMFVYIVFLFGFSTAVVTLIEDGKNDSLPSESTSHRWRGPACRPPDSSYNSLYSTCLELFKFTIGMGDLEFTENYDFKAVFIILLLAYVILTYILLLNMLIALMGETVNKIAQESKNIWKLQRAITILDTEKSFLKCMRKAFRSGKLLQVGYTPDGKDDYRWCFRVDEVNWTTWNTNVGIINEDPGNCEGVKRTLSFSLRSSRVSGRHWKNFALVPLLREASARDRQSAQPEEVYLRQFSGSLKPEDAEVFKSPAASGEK

Regarding `NS(=O)(=O)c1ccccc1-c1ccc2[nH]c(/C=C/c3ccc(F)c(Br)c3)nc2c1` [Cpd 439, (E)-2-{2-[2-(3-bromo-4-fluoro-phenyl)-vinyl]-1H-benzimidazol-5-yl}-benzenesulfonamide], the IC50 was found to be 23 nM and the inhibition at 1 µM came to 97%.
`CC(C)(C)c1ccc(/C=C/c2nc3cc(-c4ccccc4O)c(C(F)(F)F)cc3[nH]2)cc1` [Cpd 48, (E)-2-{2-[2-(4-tert-butyl-phenyl)-vinyl]-6-trifluoromethyl-1H-benzimidazol-5-yl}-phenol]: the inhibition at 1 µM was 33%.
On to `CNS(=O)(=O)c1ccccc1-c1ccc2[nH]c(/C=C/c3ccc(Cl)cc3F)nc2c1` [Cpd 339, (E)-2-{2-[2-(4-chloro-2-fluoro-phenyl)-vinyl]-1H-benzimidazol-5-yl}-N-methyl-benzenesulfonamide], for which the IC50 came out at 27 nM and the inhibition at 1 µM was determined as 99%.
The like results for `CC(C)(O)c1ccccc1-c1ccc2[nH]c(/C=C/c3ccc4ncccc4c3)nc2c1` [Cpd 449, (E)-2-{2-[2-(2-quinolin-6-yl-vinyl)-1H-benzimidazol-5-yl]-phenyl}-propan-2-ol] were, in that order, 9 nM and 100%.
For `NS(=O)(=O)Nc1ccccc1-c1ccc2[nH]c(/C=C/c3ccc(C(F)(F)F)cc3)nc2c1` [Cpd 470, (E)-5-(2-aminosulfonylamino-phenyl)-2-[2-(4-trifluoromethyl-phenyl)-vinyl]-1H-benzimidazole], in that order: 45 nM and 97%.
For `CNS(=O)(=O)c1ccccc1-c1ccc2[nH]c(/C=C/c3ccc(OC(F)(F)F)cc3)nc2c1` [Cpd 345, (E)-N-methyl-2-{2-[2-(4-trifluoromethoxy-phenyl)-vinyl]-1H-benzimidazol-5-yl}-benzenesulfonamide], in that order: 13 nM and 101%.
`NS(=O)(=O)c1ccccc1-c1ccc2[nH]c(/C=C/c3ccc(Br)cc3)nc2c1` [Cpd 363, (E)-2-{2-[2-(4-bromo-phenyl)-vinyl]-1H-benzimidazol-5-yl}-benzenesulfonamide]: the 50% inhibitory concentration (IC50) amounted to 12 nM and the inhibition at 1 µM was determined as 98%.
For `NS(=O)(=O)c1ccccc1-c1ccc2[nH]c(CCc3ccc(Cl)c(C(F)(F)F)c3)nc2c1` [Cpd 390, 2-{2-[2-(4-chloro-3-trifluoromethyl-phenyl)-ethyl]-1H-benzimidazol-5-yl}-benzenesulfonamide], the IC50 amounted to 7 nM and the inhibition at 1 µM worked out at 96%.
The like results for `NC(=O)c1ccccc1-c1ccc2[nH]c(/C=C/c3ccc(SC(F)(F)F)cc3)nc2c1` [Cpd 38, (E)-2-{2-[2-(4-trifluoromethylsulfanyl-phenyl)-vinyl]-1H-benzimidazol-5-yl}-benzamide] were, in that order, 270 nM and 89%.
`CC(C)(C)c1ccc(/C=C/c2nc3cc(-c4ccccc4F)c(C(F)(F)F)cc3[nH]2)cc1` [Cpd 52, (E)-2-[2-(4-tert-butyl-phenyl)-vinyl]-5-(2-fluoro-phenyl)-6-trifluoromethyl-1H-benzimidazole]: the inhibition at 1 µM was determined as 28%.
For the molecule `NS(=O)(=O)c1ccc(C(F)(F)F)cc1-c1ccc2[nH]c(/C=C/c3ccc(C(F)(F)F)cc3)nc2c1` [Cpd 444, (E)-4-trifluoromethyl-2-{2-[2-(4-trifluoromethyl-phenyl)-vinyl]-1H-benzimidazol-5-yl}-benzenesulfonamide], the IC50 is 28 nM and the inhibition at 1 µM was 98%.
On to `CC(C)c1ccc(CCc2nc3cc(-c4ccccc4S(N)(=O)=O)ccc3[nH]2)cc1` [Cpd 442, 2-{2-[2-(4-isopropyl-phenyl)-ethyl]-1H-benzimidazol-5-yl}-benzenesulfonamide], for which the IC50 was 4 nM and the inhibition at 1 µM was 96%.
The like results for `CS(=O)(=O)Nc1ccccc1-c1ccc2[nH]c(/C=C/c3cc(F)cc(C(F)(F)F)c3)nc2c1` [Cpd 411, (E)-N-(2-{2-[2-(3-fluoro-5-trifluoromethyl-phenyl)-vinyl]-1H-benzimidazol-5-yl}-phenyl)-methanesulfonamide] were, in that order, 350 nM and 85%.
For the molecule `CC(C)(C)c1ccc(CCc2nc3cc(-c4cccc(O)c4)ccc3[nH]2)cc1` [Cpd 33, 3-{2-[2-(4-tert-butyl-phenyl)-ethyl]-1H-benzimidazol-5-yl}-phenol], the concentration for half-maximal inhibition (IC50) was 1700 nM.
Turning to `NS(=O)(=O)c1ccccc1-c1ccc2[nH]c(CCc3cc(F)cc(F)c3)nc2c1` [Cpd 396, 2-{2-[2-(3,5-difluoro-phenyl)-ethyl]-1H-benzimidazol-5-yl}-benzenesulfonamide], the IC50 stood at 13 nM and the inhibition at 1 µM came to 99%.
On to `CC(C)(C)c1ccc(/C=C/c2nc3cc(-c4ccccc4NS(C)(=O)=O)c(C(F)(F)F)cc3[nH]2)cc1` [Cpd 55, (E)-N-(2-{2-[2-(4-tert-butyl-phenyl)-vinyl]-6-trifluoromethyl-1H-benzimidazol-5-yl}-phenyl)-methanesulfonamide], for which the inhibition at 1 µM worked out at 14%.
With `CC(C)(O)c1ccccc1-c1ccc2[nH]c(C3CC3c3cccc(C(F)(F)F)c3)nc2c1` (stereo not drawn) [Cpd 234, 2-(2-{2-[2-(3-trifluoromethyl-phenyl)-cyclopropyl]-1H-benzimidazol-5-yl}-phenyl)-propan-2-ol], the inhibition at 1 µM came out at 7%.
With `NS(=O)(=O)c1ccccc1-c1ccc2[nH]c(CCc3cc(C(F)(F)F)ccc3C(F)(F)F)nc2c1` [Cpd 388, 2-{2-[2-(2,5-bis-trifluoromethyl-phenyl)-ethyl]-1H-benzimidazol-5-yl}-benzenesulfonamide], the IC50 came to 54 nM and the inhibition at 1 µM was found to be 99%.
For the molecule `CC(C)(C)c1ccc(CCCc2nc3cc(-c4ccccc4O)ccc3[nH]2)cc1` [Cpd 29, 2-{2-[3-(4-tert-butyl-phenyl)-propyl]-1H-benzimidazol-5-yl}-phenol], the inhibition at 1 µM came to 6%.
Still for that read-out and setting: then `CC(C)(C)C(=O)Nc1ccccc1-c1ccc2[nH]c(/C=C/c3ccc(C(F)(F)F)cc3)nc2c1` [Cpd 460, (E)-2,2-dimethyl-N-(2-{2-[2-(4-trifluoromethyl-phenyl)-vinyl]-1H-benzimidazol-5-yl}-phenyl)-propionamide], with 21%.
Regarding `NS(=O)(=O)c1ccccc1-c1ccc2[nH]c(/C=C/c3ccc(C(F)F)cc3)nc2c1` [Cpd 435, (E)-2-{2-[2-(4-difluoromethyl-phenyl)-vinyl]-1H-benzimidazol-5-yl}-benzenesulfonamide], the IC50 is 20 nM and the inhibition at 1 µM is 97%.
Consider `NS(=O)(=O)c1ccccc1-c1ccc2[nH]c(/C=C/c3cc(C(F)(F)F)ccc3C(F)(F)F)nc2c1` [Cpd 374, (E)-2-{2-[2-(2,5-bis-trifluoromethyl-phenyl)-vinyl]-1H-benzimidazol-5-yl}-benzenesulfonamide], for which the IC50 was 34 nM and the inhibition at 1 µM came out at 99%.
For `CC(C)(C)c1ccc(/C=C/c2nc3cc(-c4ccccc4C(N)=O)c(C(F)(F)F)cc3[nH]2)cc1` [Cpd 53, (E)-2-{2-[2-(4-tert-butyl-phenyl)-vinyl]-6-trifluoromethyl-1H-benzimidazol-5-yl}-benzamide], in that order: 47 nM and 98%.
For `Oc1ccccc1-c1ccc2[nH]c(C3CC3c3ccc(C(F)(F)F)cc3)nc2c1` (stereo not drawn) [Cpd 472, 2-{2-[2-(4-trifluoromethyl-phenyl)-cyclopropyl]-1H-benzimidazol-5-yl}-phenol], the IC50 was over 500 nM.
As to `CNS(=O)(=O)c1ccccc1-c1ccc2[nH]c(/C=C/c3c(F)cccc3F)nc2c1` [Cpd 327, (E)-2-{2-[2-(2,6-difluoro-phenyl)-vinyl]-1H-benzimidazol-5-yl}-N-methyl-benzenesulfonamide], the IC50 was 343 nM and the inhibition at 1 µM worked out at 77%.
The like results for `NS(=O)(=O)c1ccccc1-c1ccc2[nH]c(CCc3cc(C(F)(F)F)cc(C(F)(F)F)c3)nc2c1` [Cpd 387, 2-{2-[2-(3,5-bis-trifluoromethyl-phenyl)-ethyl]-1H-benzimidazol-5-yl}-benzenesulfonamide] were, in that order, 41 nM and 98%.
`CC(C)(C)NS(=O)(=O)c1ccccc1-c1ccc2[nH]c(C3CC3c3ccc(C(F)(F)F)cc3)nc2c1` (stereo not drawn) [Cpd 499, N-tert-butyl-2-{2-[2-(4-trifluoromethyl-phenyl)-cyclopropyl]-1H-benzimidazol-5-yl}-benzenesulfonamide]: the inhibition at 1 µM is 7%.
On to `NS(=O)(=O)NCc1ccccc1-c1ccc2[nH]c(/C=C/c3ccc(C(F)(F)F)cc3)nc2c1` [Cpd 491, (E)-5-(2-aminosulfonylamino-methylphenyl)-2-[2-(4-trifluoromethyl-phenyl)-vinyl]-1H-benzimidazole], for which the IC50 amounted to 77 nM.
Consider `CNS(=O)(=O)c1ccccc1-c1ccc2[nH]c(/C=C/c3ccc(F)cc3F)nc2c1` [Cpd 349, (E)-2-{2-[2-(2,4-difluoro-phenyl)-vinyl]-1H-benzimidazol-5-yl}-N-methyl-benzenesulfonamide], for which the IC50 is 59 nM and the inhibition at 1 µM was found to be 99%.
On to `CC(=O)c1ccccc1-c1cc2nc(/C=C/c3ccc(C(F)(F)F)cc3)[nH]c2cc1C(F)(F)F` [Cpd 57, (E)-1-(2-{6-trifluoromethyl-2-[2-(4-trifluoromethyl-phenyl)-vinyl]-1H-benzimidazol-5-yl}-phenyl)-ethanone], for which the inhibition at 1 µM came to 15%.
With `CC(C)(C)c1ccc(/C=C/c2nc3cc(-c4ccccc4CO)ccc3[nH]2)cc1` [Cpd 12, (E)-(2-{2-[2-(4-tert-butyl-phenyl)-vinyl]-1H-benzimidazol-5-yl}-phenyl)-methanol], the IC50 came out at 10 nM and the inhibition at 1 µM came to 100%.
For `NS(=O)(=O)c1ccccc1-c1ccc2[nH]c(/C=C/c3ccccc3Br)nc2c1` [Cpd 366, (E)-2-{2-[2-(2-bromo-phenyl)-vinyl]-1H-benzimidazol-5-yl}-benzenesulfonamide], in that order: 35 nM and 99%.
Turning to `NC(=O)c1ccccc1-c1ccc2[nH]c(/C=C/c3ccc(F)c(F)c3)nc2c1` [Cpd 26, (E)-2-{2-[2-(3,4-difluoro-phenyl)-vinyl]-1H-benzimidazol-5-yl}-benzamide], the inhibition at 1 µM amounted to 6%.
